According to the METLIN SMRT retention time set (Domingo-Almenara et al. 2019):

Assay: gradient 5% acetonitrile 3 min, to 50% in 2 min, to 85% in 15 min, held 3 min, 100 µL/min
Details: column: Zorbax Extend-C18 2.1 x 50 mm; eluents: water / acetonitrile, 0.1% formic acid
Outline: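 Values are retention times taken from adduct peaks that software picked and an analyst inspected. The pure standards were run as mixtures of ~100 molecules on HPLC linked to a quadrupole time-of-flight mass spectrometer, in positive and negative ionization mode. A Zorbax Extend-C18 column (2.1 × 50 mm, 1.8 μm) was used at 100 μL/min with water and acetonitrile, each including 0.1% formic acid.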

SMILES: COc1ccc(C2C(=O)N(C3CCC(C)CC3)CC(=O)N2Cc2cccs2)cc1OC (stereo not drawn)
- RP-LC retention time: 961 s

SMILES: O=C(Cn1cc(C(=O)C(=O)N2CCCC2)c2ccccc21)NCc1ccc2c(c1)OCCCO2
- RP-LC retention time: 786 s

SMILES: CC(=O)c1cc2c(cc1NC(=O)c1ccc(COc3ccccc3)o1)OCO2
- RP-LC retention time: 1080 s

SMILES: C=CCNC(=O)C(=O)Nc1ccc2c(c1)N(C(=O)C(C)C)CCC2
- RP-LC retention time: 746 s

SMILES: CCOc1ccccc1NC(=O)C1CCCN(c2cnc3nccnc3c2)C1 (stereo not drawn)
- RP-LC retention time: 664 s

SMILES: Cc1cc(-c2cc(S(=O)(=O)N(CCN(C)C)Cc3cccs3)c(C)s2)n[nH]1
- RP-LC retention time: 658 s

SMILES: CCn1cc(SCC(=O)NCc2ccc3c(c2)OCO3)c2ccccc21
- RP-LC retention time: 854 s

SMILES: Cc1ccc(Cl)cc1NC(=O)CSc1ccc(N2CCCC(C(=O)NC3CC3)C2)nn1 (stereo not drawn)
- RP-LC retention time: 698 s

SMILES: Cn1ncc(Br)c1C(=O)N1CCCC1c1ccccc1F (stereo not drawn)
- RP-LC retention time: 872 s

SMILES: O=C(Nc1ccc2c(c1)OCCO2)N1CCC(Cc2nc(-c3ccncc3)n[nH]2)C1 (stereo not drawn)
- RP-LC retention time: 580 s

SMILES: COc1ccc(NC(=O)C2CC(=O)N(CCc3c[nH]c4ccc(Cl)cc34)C2)c(OC)c1 (stereo not drawn)
- RP-LC retention time: 820 s

SMILES: COc1ccc(-c2csc3c(=O)n(CC(=O)OC(C)C)cnc23)cc1
- RP-LC retention time: 939 s

SMILES: O=C(c1ccccn1)N1CCN(c2cc(-c3ccccc3)ncn2)CC1
- RP-LC retention time: 551 s

SMILES: CCOc1ccc(-c2cn3ccn(-c4ccc(C)cc4C)c(=O)c3n2)cc1
- RP-LC retention time: 921 s

SMILES: CC(C)Oc1ccc(-c2noc(Cn3c(=O)n(CCc4ccccc4)c(=O)c4sccc43)n2)cc1
- RP-LC retention time: 1230 s

SMILES: COc1cccc(-c2cc(C(=O)N3CCOCC3)[nH]n2)c1
- RP-LC retention time: 658 s

SMILES: CCOc1ccccc1-c1nc(-c2ccc3oc(CC)nc3c2)no1
- RP-LC retention time: 1210 s

SMILES: O=C(C1=CN(c2cc(F)cc(F)c2)c2cc(Cl)ccc2S1(=O)=O)N1CCCC1
- RP-LC retention time: 861 s

SMILES: Cc1nc(C2CCN(C(=O)CCc3c[nH]c4ccccc34)CC2)n[nH]1
- RP-LC retention time: 603 s

SMILES: COc1cc(NC(=O)Cn2nc(N3CCCC(C)C3)c3ccccc3c2=O)cc(OC)c1 (stereo not drawn)
- RP-LC retention time: 1100 s

SMILES: CCCNC(=O)C1CCCN(c2ccc(SCC(=O)Nc3ccc(C)cc3)nn2)C1 (stereo not drawn)
- RP-LC retention time: 686 s

SMILES: Cc1nc2cc(-c3noc(CCc4c[nH]c5ccccc45)n3)ccc2o1
- RP-LC retention time: 1020 s

SMILES: COc1ccc(CC(=O)NC2CCN(c3nnc4ccccn34)CC2)cc1
- RP-LC retention time: 626 s

SMILES: COC(=O)C1=CN(CC(=O)NCc2ccc(OC)cc2)S(=O)(=O)N=C1C
- RP-LC retention time: 1110 s

SMILES: CCn1c(C(=O)Nc2cc(C)ccc2C)cc2sc(Cl)cc21
- RP-LC retention time: 1230 s

SMILES: Cc1ccc(Nc2c(-c3ccccc3)nc3ccccn23)cc1
- RP-LC retention time: 694 s

SMILES: Cc1ccc(-c2noc(C3CC(=O)N(c4ccc5c(c4)OCCO5)C3)n2)cc1 (stereo not drawn)
- RP-LC retention time: 943 s

SMILES: O=c1n(Cc2ccc(F)cc2)nc2c(S(=O)(=O)N3CCCCC3)cccn12
- RP-LC retention time: 887 s

SMILES: COc1cccc(C(=O)Nc2ccc3c(c2)Sc2ncccc2C(=O)N3C(C)C)c1OC
- RP-LC retention time: 915 s

SMILES: COC(=O)C1=C(NC(=O)c2ccc(N3C(=O)CCC3=O)cc2)CCS1
- RP-LC retention time: 739 s

SMILES: CCn1nccc1C(=O)N1C[C@@H](CO)[C@H](NC(C)=O)C1
- RP-LC retention time: 514 s

SMILES: O=C(c1ccc(N2CCCC2=O)cc1)N1CCCn2nc(-c3ccc(F)cc3)cc2C1
- RP-LC retention time: 708 s

SMILES: COc1ccc(-c2cn3cccnc3n2)cc1NC(=O)c1c(F)cccc1F
- RP-LC retention time: 653 s

SMILES: COc1ccc(-c2nc(C)cc3nn(CC(=O)Nc4ccc(C)c(C)c4)c(=O)n23)cc1
- RP-LC retention time: 895 s

SMILES: COc1ccc(N2C(=O)CCS2(=O)=O)cc1S(=O)(=O)NCCc1c[nH]c2ccccc12
- RP-LC retention time: 792 s

SMILES: CCc1noc(NC(C)=O)c1-c1ccc(C)c(S(=O)(=O)Nc2ccc(F)cc2)c1
- RP-LC retention time: 822 s

SMILES: CCOC(=O)c1[nH]c(C)c(CCC(=O)N2CCC(C(=O)NCc3cccs3)CC2)c1C
- RP-LC retention time: 755 s

SMILES: O=C(NCc1ccccc1F)C1CCCN(c2nn3c(=O)c4c(nc3s2)CCCC4)C1 (stereo not drawn)
- RP-LC retention time: 762 s

SMILES: COc1cc(CN2CCc3nc(N4CCC(C)CC4)ncc3C2)ccc1OC(C)C
- RP-LC retention time: 764 s

SMILES: O=C(CNC(=O)Cc1ccc(Cl)cc1)NCc1[nH]nc2ccccc12
- RP-LC retention time: 703 s

SMILES: CCc1noc(-c2ccc(-n3ncc(C(=O)NC4CCCCC4)c3C)nc2)n1
- RP-LC retention time: 1020 s

SMILES: CCC1Oc2ccc(S(=O)(=O)N3CCC(C(=O)NCc4cccc(C)c4)CC3)cc2NC1=O (stereo not drawn)
- RP-LC retention time: 893 s

SMILES: COC1CN(c2cccc(F)c2)C12CCN(C(=O)NC1CCCCC1)CC2 (stereo not drawn)
- RP-LC retention time: 1030 s

SMILES: Cc1nn(-c2cc(N3CCCC3)ncn2)c(C)c1CCC(=O)NCCc1ccco1
- RP-LC retention time: 721 s

SMILES: Cc1ccn2c(=O)cc(CN(C)Cc3ccc(Cl)cc3)nc2c1
- RP-LC retention time: 631 s

SMILES: CCOc1ccc(-c2noc(CN3C(=O)COc4cc(Cl)ccc43)n2)cc1
- RP-LC retention time: 1180 s

SMILES: Cc1ccc(CN2CCN(CC(=O)Nc3cccc(C(F)(F)F)c3)C(=O)C2=O)cc1
- RP-LC retention time: 939 s

SMILES: O=C(NCCC1CCN(C(=O)Nc2ccc(F)cc2F)CC1)C1CC1
- RP-LC retention time: 691 s

SMILES: Cc1ccc(-c2noc(Cn3c(=O)n(Cc4ccccc4Cl)c(=O)c4sccc43)n2)cc1C
- RP-LC retention time: 1290 s

SMILES: COc1ccccc1CNC(=O)C1CCN(C(=O)c2nn(C)c3c2CN(C(=O)C(C)C)CC3)CC1
- RP-LC retention time: 681 s

SMILES: O=C(NCCCN1CCCCCC1)c1csc(-c2ccnc(N3CCOCC3)c2)n1
- RP-LC retention time: 576 s

SMILES: COC(=O)c1c(NCCc2cccs2)c2cccc(Cl)c2[nH]c1=O
- RP-LC retention time: 823 s

SMILES: Cc1cc(C(=O)Nc2ccc(Cl)cc2)nc2ccnn12
- RP-LC retention time: 1010 s

SMILES: CCCOc1ccnc2c1c(=O)n(CC(=O)Nc1cc(C)on1)c(=O)n2C
- RP-LC retention time: 675 s

SMILES: O=C(Cc1cccc(F)c1)N1CCN(C(=O)c2nnn3c2COC(c2ccccc2)C3)CC1 (stereo not drawn)
- RP-LC retention time: 854 s

SMILES: Cc1ccc2c(c1)cc(S(=O)(=O)c1ccccc1)c(=O)n2CC(=O)N1CCCCC1
- RP-LC retention time: 919 s

SMILES: COc1cccc(-c2noc(CN3C(=O)COc4cc(Cl)ccc43)n2)c1
- RP-LC retention time: 1090 s

SMILES: Fc1cccc(-c2cc(CN3CCN(c4ncccn4)CC3)[nH]n2)c1
- RP-LC retention time: 618 s

SMILES: Cc1ccc2c(c1)cc(S(=O)(=O)c1ccccc1)c(=O)n2CC(=O)NCc1ccccc1Cl
- RP-LC retention time: 948 s

SMILES: CCc1nncn1C1CCN(S(=O)(=O)c2ccc(C)cc2C)CC1
- RP-LC retention time: 738 s

SMILES: COc1ccc(CCNC(=O)CN2C(=O)NC3(CCC(C)CC3)C2=O)cc1OC (stereo not drawn)
- RP-LC retention time: 740 s

SMILES: N#Cc1ccccc1NC(=O)Cc1ccc2c(c1)OCO2
- RP-LC retention time: 710 s

SMILES: CC1Cc2cc(S(=O)(=O)CCC(=O)N3CCN(Cc4ccccc4)CC3)ccc2N1C(=O)C1CC1 (stereo not drawn)
- RP-LC retention time: 666 s

SMILES: O=C1NCC(=O)N2CC3(CCN(C(=O)C4CCCCC4)CC3)CC12 (stereo not drawn)
- RP-LC retention time: 624 s

SMILES: CCn1c(=O)n(CC)c2cc(NC3=C(C(N)=O)S(=O)(=O)c4ccccc43)ccc21
- RP-LC retention time: 702 s

SMILES: O=C(Cn1nc2c(c1NC(=O)Cc1noc3ccccc13)CSC2)NCC1CCCO1 (stereo not drawn)
- RP-LC retention time: 853 s

SMILES: CC(C)(C)OC(=O)Cn1cnc2c(-c3ccc(Cl)cc3)csc2c1=O
- RP-LC retention time: 1120 s

SMILES: Cc1nc2c(c(N(C)CCc3c(C)nn(C)c3C)n1)CCC2
- RP-LC retention time: 588 s

SMILES: CC(C)(C)c1ccc(-c2noc(Cn3c(=O)n(-c4ccccc4F)c(=O)c4sccc43)n2)cc1
- RP-LC retention time: 1220 s

SMILES: Cc1ccc(-c2csc(NC(=O)COc3c(C)ccc(C)c3C)n2)cc1
- RP-LC retention time: 1320 s

SMILES: O=C(Cc1ccc(F)cc1)NC1CCN(c2cc(-c3ccccc3)[nH]n2)C1 (stereo not drawn)
- RP-LC retention time: 706 s

SMILES: COc1ccccc1CNc1ncnc(N)c1[N+](=O)[O-]
- RP-LC retention time: 735 s

SMILES: CCS(=O)(=O)N1CC(=O)N(c2ccc(C)c(C)c2)C(C)(C(=O)NCc2ccccc2)C1 (stereo not drawn)
- RP-LC retention time: 860 s

SMILES: O=C(N[C@H]1C[C@@H]2C[C@H]1CN2C(=O)c1ccccc1Cl)c1cccs1
- RP-LC retention time: 701 s

SMILES: O=S(=O)(Nc1cccn2ncnc12)c1cccc(C(F)(F)F)c1
- RP-LC retention time: 804 s

SMILES: CCc1noc2nc(C)n(CC(=O)NCc3ccc(OC(C)C)cc3)c(=O)c12
- RP-LC retention time: 661 s

SMILES: Cc1ccn(-c2ccc(Nc3ccc(NC(=O)c4ccc(Br)o4)cc3)nn2)n1
- RP-LC retention time: 776 s

SMILES: COc1cc(C)c(Br)cc1S(=O)(=O)N1CCC(C(N)=O)CC1
- RP-LC retention time: 697 s

SMILES: Cn1cc(C(=O)NCc2cc(F)cc(F)c2)c(S(=O)(=O)N2CCSCC2)n1
- RP-LC retention time: 1010 s

SMILES: Cc1noc(C)c1-c1ccc(S(=O)(=O)N2CCc3ccccc32)cc1
- RP-LC retention time: 1040 s

SMILES: CC(=O)c1cccc(NC(=O)c2cnn3c4c(cnc23)CCCCCC4)c1
- RP-LC retention time: 1030 s

SMILES: Cn1nc(C(=O)N2C[C@@H]3C[C@H](NC(=O)c4cccs4)[C@H]2C3)c2ccccc21
- RP-LC retention time: 778 s

SMILES: Cc1cc(-c2nnc(-c3ccccc3)o2)c(C)n1CC(=O)NCc1ccccc1Cl
- RP-LC retention time: 966 s

SMILES: CCc1nnc2c(=O)n(CC(=O)N3CCN(c4ccccn4)CC3)c3cccnc3n12
- RP-LC retention time: 560 s

SMILES: COCCN1C(=O)Cc2ccccc2C1C(=O)N1CCN(c2ccccn2)CC1 (stereo not drawn)
- RP-LC retention time: 581 s

SMILES: N#Cc1cccc(NC(=O)N2CCC(c3cc(N)on3)CC2)c1
- RP-LC retention time: 660 s

SMILES: Cc1cc(N2CCN(C(=O)CCc3c[nH]c4ccccc34)CC2)nc2ccccc12
- RP-LC retention time: 584 s

SMILES: CCOc1ccc(C(=O)N2CCN(c3nc(CN4CCOCC4)cs3)CC2)cc1
- RP-LC retention time: 615 s
